Here are results for one compound from patent US5419898A, “Antiallergic composition for ophthalmic or nasal use” (priority 1992, dated 1995).

Counter-ions that a name gives are not always drawn.

The subject of this assay is histamine-induced conjunctivitis. In words: Effect on rat histamine-induced conjunctivitis. The class given is in vivo, Male Wistar rats. The note with it: 0.5 w/v % cetirizine hydrochloride; 3 μl per eye 40 and 20 minutes before histamine. How it is done: Male Wistar rats of about 100 g in weight were injected subconjunctivally each with 50 μl of 0.1 w/v % histamine at the upper eyelid. Each of the following test ophthalmic compositions in solution form was instilled into both eyes of the rats in the corresponding group at a dose of 3 μl for each eye 40 and 20 minutes before the histamine injection. The rats were sacrificed one hour after the histamine injection. The palpebral conjunctival edema weight was measured, and the edema inhibition rate was calculated using the edema weight of the physiological saline group as the maximal response.

`O=C(O)COCCN1CCN(C(c2ccccc2)c2ccc(Cl)cc2)CC1` (stereo not shown) [cetirizine hydrochloride]: the edema inhibition rate result was “about 88.8%”.
